Here are results for 1 compound from patent publication US20030170643A1, “Regulation of apoB treatment and drug screening for cardiovascular and metabolic disorders or syndromes” (priority 1999, published 2003).

The test addresses T1, purified bovine MTP (Bos taurus, UniProt P55156).
T1 sequence (P55156 12-887): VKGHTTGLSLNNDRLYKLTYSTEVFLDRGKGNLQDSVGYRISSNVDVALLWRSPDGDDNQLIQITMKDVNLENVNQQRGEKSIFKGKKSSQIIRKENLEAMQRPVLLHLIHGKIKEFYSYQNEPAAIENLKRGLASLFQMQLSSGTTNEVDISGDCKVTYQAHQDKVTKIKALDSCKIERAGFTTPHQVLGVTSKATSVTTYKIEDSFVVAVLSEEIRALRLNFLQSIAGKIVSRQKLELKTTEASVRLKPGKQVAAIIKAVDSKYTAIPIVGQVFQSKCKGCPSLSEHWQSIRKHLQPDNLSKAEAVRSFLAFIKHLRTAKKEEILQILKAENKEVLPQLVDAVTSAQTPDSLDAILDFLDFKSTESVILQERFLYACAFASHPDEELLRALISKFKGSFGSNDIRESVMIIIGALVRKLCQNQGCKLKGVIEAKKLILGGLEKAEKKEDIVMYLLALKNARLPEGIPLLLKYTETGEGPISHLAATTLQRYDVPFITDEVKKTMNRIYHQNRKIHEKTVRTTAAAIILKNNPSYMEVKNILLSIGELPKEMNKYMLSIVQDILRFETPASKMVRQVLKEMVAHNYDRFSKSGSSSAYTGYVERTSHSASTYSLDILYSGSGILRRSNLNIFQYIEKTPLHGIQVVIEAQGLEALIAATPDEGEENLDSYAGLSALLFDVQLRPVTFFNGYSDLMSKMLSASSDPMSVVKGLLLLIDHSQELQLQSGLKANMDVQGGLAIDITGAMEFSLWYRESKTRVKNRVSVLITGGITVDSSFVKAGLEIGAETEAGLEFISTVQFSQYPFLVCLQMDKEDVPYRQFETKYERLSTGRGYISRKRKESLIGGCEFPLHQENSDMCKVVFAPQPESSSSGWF
T1 sequence (P05307 21-510 partner): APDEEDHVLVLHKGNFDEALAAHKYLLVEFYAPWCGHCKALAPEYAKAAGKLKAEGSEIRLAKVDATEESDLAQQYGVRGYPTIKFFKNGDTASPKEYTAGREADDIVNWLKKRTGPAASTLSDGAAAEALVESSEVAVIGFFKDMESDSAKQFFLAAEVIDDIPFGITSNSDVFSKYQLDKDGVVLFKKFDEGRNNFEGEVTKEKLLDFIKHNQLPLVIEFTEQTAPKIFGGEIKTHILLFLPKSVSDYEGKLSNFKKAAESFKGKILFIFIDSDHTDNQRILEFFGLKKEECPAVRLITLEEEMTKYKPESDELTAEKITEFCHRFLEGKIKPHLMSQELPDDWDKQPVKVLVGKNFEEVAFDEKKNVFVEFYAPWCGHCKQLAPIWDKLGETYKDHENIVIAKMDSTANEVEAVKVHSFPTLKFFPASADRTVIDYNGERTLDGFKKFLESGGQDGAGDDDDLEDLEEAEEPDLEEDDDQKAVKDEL
Description: MTP-mediated transfer of lipid classes biosynthetically labeled with OA or EPA (donor/acceptor vesicles). The test is classed as biochemical. On the procedure: FIG. 5 illustrates that Ω-3 lipids are good substrates for MTP-mediated lipid transfer. HepG2 cells were incubated for 14 hr at 37° C. with ^14C-labeled oleate (OA) or ^14C-labeled EPA complexed to BSA (final concentration of either fatty acid was 0.8 mM). Total lipids were extracted from the washed cell monolayers and separated by preparative TLC into triglyceride (TG), cholesteryl ester (CE), phosphatidylcholine (PC), and phosphatidylethanolamine (PE). The isolated lipid classes were then incorporated (to a content of 0.5 mol %) into vesicles that were used as donors in lipid transfer assays with recombinant MTP. Results were normalized to the transfer of [^14C]triolein and are shown as mean values ±SE (n=4).
Three methods were used to assess possible effects of Ω-3 fatty acids on cellular MTP function. First, rat primary hepatocytes were incubated with BSA, OA, or EPA, and then MTP activity in cell lysates was measured using a fluorescent assay (Roar Biomedical, New York, NY). Second, to determine if lipid classes synthesized in the presence of OA or Ω-3 fatty acid are equivalent substrates for MTP, primary rat hepatocytes or HepG2 cells were incubated with tritiated OA or EPA, total cellular lipids were extracted into isopropanol, and biosynthetically labeled cholesteryl ester, triglyceride, and phospholipids were separated by preparative thin layer chromatography. Each of these isolated lipids was incorporated into vesicles that were used as donors in a transfer reaction with acceptor vesicles and […] of purified bovine MTP, as described in Jamil, H., Dickson, J. K., Jr., Chu, C. H., Lago, M. W., Rinehart, J. K., Biller, S. A., Gregg, R. E., and Wetterau, J. R. (1995) J Biol Chem 270(12), 6549-54. As an internal control for lipid transfer, each donor vesicle also contained [^14C]triolein. Third, to determine if Ω-3 lipids inhibit MTP-mediated transfer of non-Ω-3 lipids, artificial donor vesicles were prepared containing either labeled triolein or labeled POPC. The majority of lipid mass in these vesicles was unlabeled phosphatidylcholine that contained either 100% oleate esterified at the sn-2 position (control) or a mixture of 70% oleate and 30% DHA or 30% EPA. Transfer of the labeled lipids to acceptor vesicles in the presence of 50 μg of purified bovine MTP was measured as described in Jamil, H. et al (1995) J Biol Chem 270(12), 6549-54.
An intracellular abundance of relatively poor lipid substrates, produced during incubations of hepatocytes with EPA or DHA, could be functionally equivalent to MTP inhibition. Thus, rat primary hepatocytes and HepG2 cells were incubated with radiolabeled OA or EPA to allow incorporation of these fatty acids into lipid esters. […]

Turning to `CCCCCCCC/C=C\CCCCCCCC(=O)O` [OA, oleic acid], the “MTP-mediated transfer of labeled cholesteryl esters, % of [14C]triolein transfer” value (lipids from fatty acid-treated HepG2 cells, P=0.07) came out at 20%+4%. Where the note is “lipids from fatty acid-treated HepG2 cells, P=0.6”, the “MTP-mediated transfer of labeled phosphatidylethanolamines, % of [14C]triolein transfer” value is 1.1%+0.1%. For the same compound, where the note is “lipids from fatty acid-treated HepG2 cells, P=0.7”, the “MTP-mediated transfer of labeled phosphatidylcholines, % of [14C]triolein transfer” value was found to be 2.3%+1%. In addition, the “MTP-mediated transfer rate of labeled triglycerides, % of [14C]triolein transfer” value (lipids harvested from fatty acid-treated HepG2 cells, P=0.3) was 60%±8%.
